From US9718804B2, “GSK-3 inhibitors” (BRISTOL-MYERS SQUIBB COMPANY, priority 2013, dated 2017)

Key:
[1] = target: GSK3α (Homo sapiens, UniProt P49840); assay: GSK3α kinase assay (Caliper LabChip, fluoresceinated peptide substrate); type: biochemical
Outline: (§1)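 IC50 values were derived by non-linear regression from eleven-point dose series. Each reaction was held at room temperature for 20 hours and quenched with EDTA.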

[2] = target: GSK3β (Homo sapiens, UniProt P49841); assay: GSK3β kinase assay (Caliper LabChip, fluoresceinated peptide substrate); type: biochemical; conditions: first value of the cell; 250 pM enzyme, 20 uM ATP, 20 hours at room temperature; read-out: GSK3β/α (nM): GSK3β IC50
Outline: as §1

[3] = tested on: pTau; assay: pTau assay (no method described); type: cell-based

GSK3α, sequence (P49840 whole entry, species assumed): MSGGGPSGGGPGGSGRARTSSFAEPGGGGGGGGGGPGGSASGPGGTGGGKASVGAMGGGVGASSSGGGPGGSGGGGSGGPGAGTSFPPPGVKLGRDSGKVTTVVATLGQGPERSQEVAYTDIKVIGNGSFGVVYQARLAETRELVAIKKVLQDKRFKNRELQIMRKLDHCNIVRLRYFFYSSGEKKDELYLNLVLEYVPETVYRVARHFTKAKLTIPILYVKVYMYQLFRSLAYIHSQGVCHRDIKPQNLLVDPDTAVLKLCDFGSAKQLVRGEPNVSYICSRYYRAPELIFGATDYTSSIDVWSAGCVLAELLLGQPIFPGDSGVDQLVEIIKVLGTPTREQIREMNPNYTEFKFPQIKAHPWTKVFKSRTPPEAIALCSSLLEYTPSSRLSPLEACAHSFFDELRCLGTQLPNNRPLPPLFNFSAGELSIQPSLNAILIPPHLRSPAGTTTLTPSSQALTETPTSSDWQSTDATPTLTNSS
GSK3β, sequence (P49841 whole entry, species assumed): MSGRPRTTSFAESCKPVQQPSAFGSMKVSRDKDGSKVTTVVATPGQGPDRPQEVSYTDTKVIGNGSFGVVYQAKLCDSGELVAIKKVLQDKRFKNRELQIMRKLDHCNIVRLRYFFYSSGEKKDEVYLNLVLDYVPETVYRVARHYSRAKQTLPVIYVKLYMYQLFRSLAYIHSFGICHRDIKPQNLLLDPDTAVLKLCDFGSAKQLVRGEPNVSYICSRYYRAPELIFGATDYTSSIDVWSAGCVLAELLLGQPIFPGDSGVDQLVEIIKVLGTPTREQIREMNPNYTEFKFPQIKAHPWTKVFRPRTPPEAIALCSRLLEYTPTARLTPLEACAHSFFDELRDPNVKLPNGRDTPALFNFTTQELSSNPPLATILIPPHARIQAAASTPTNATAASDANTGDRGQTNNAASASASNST

SMILES	IC50 [1]	IC50 [2]	IC50 [3]
CC(C)(C)COc1ccncc1NC(=O)c1ccnc(Nc2ccc(C#N)cn2)c1 [Example 25, 2-((5-Cyanopyridin-2-yl)amino)-N-(4-(neopentyloxy)pyridin-3-yl)isonicotinamide]	2 nM	4.3 nM	30 nM
Cc1ccnc(Nc2cc(C(=O)Nc3cnccc3-c3ccccc3)ccn2)c1 [Example 6, 2-((4-Methylpyridin-2-yl)amino)-N-(4-phenylpyridin-3-yl)isonicotinamide]	1.3 nM	1.1 nM	164 nM
CC(C)CSc1ccncc1NC(=O)c1ccnc(Nc2ccc(C(F)(F)F)cn2)c1 [Example 175, N-(4-(Isobutylthio)pyridin-3-yl)-2-((5-(trifluoromethyl)pyridin-2-yl)amino)isonicotinamide]	0.4 nM	1.1 nM	78 nM
O=C(Nc1cnccc1-c1ccccc1)c1ccnc(Nc2cccc(F)n2)c1 [Example 7, 2-((6-Fluoropyridin-2-yl)amino)-N-(4-phenylpyridin-3-yl)isonicotinamide]	5.9 nM	8.5 nM	249 nM
CN(C)S(=O)(=O)c1ccc(Nc2cc(C(=O)Nc3cncc(-c4ccccc4F)c3)ccn2)nc1 [Example 157, 2-((5-(N,N-Dimethylsulfamoyl)pyridin-2-yl)amino)-N-(5-(2-fluorophenyl)pyridin-3-yl)isonicotinamide]	1.6 nM	3.6 nM	750 nM
CCOc1ccncc1NC(=O)c1ccnc(Nc2cc(C)ccn2)c1 [Example 13, N-(4-Ethoxypyridin-3-yl)-2-((4-methylpyridin-2-yl)amino)isonicotinamide]	2.3 nM	1.4 nM	154 nM
O=C(Nc1cnccc1OCC(F)(F)F)c1ccnc(Nc2ccc(C(F)(F)F)cn2)c1F [Example 169, 3-Fluoro-N-(4-(2,2,2-trifluoroethoxy)pyridin-3-yl)-2-((5-(trifluoromethyl)pyridin-2-yl)amino)isonicotinamide]	10 nM	28 nM	3900 nM
O=C(Nc1cnccc1-c1ccc(Cl)cc1)c1ccnc(Nc2ccc(Cl)cn2)c1 [Example 60, N-(4-(4-Chlorophenyl)pyridin-3-yl)-2-((5-chloropyridin-2-yl)amino)isonicotinamide]	1.2 nM	2.7 nM	270 nM
C[C@@H]1COCCN1c1ccncc1NC(=O)c1ccnc(Nc2ccc(C(F)(F)F)cn2)c1 [Example 21, (R)—N-(4-(3-Methylmorpholino)pyridin-3-yl)-2-((5-(trifluoromethyl)pyridin-2-yl)amino)isonicotinamide]	0.28 nM	0.7 nM	9.1 nM
COc1ccc(Nc2cc(C(=O)Nc3cncc(-c4ccccc4F)c3)ccn2)nc1 [Example 141, N-(5-(2-Fluorophenyl)pyridin-3-yl)-2-((5-methoxylpyridin-2-yl)amino)isonicotinamide]	1.8 nM	3.5 nM	680 nM
CCCC(O)c1cc(Cl)ncc1NC(=O)c1ccnc(Nc2ccc(C(F)(F)F)cn2)c1 (stereo not drawn) [Example 100, N-(6-Chloro-4-(1-hydroxybutyl)pyridin-3-yl)-2-((5-(trifluoromethyl)pyridin-2-yl)amino)isonicotinamide]	8.4 nM	11 nM	500 nM
NS(=O)(=O)c1ccc(Nc2cc(C(=O)Nc3cncc(-c4ccccc4F)c3)ccn2)nc1 [Example 156, N-(5-(2-Fluorophenyl)pyridin-3-yl)-2-((5-sulfamoylpyridin-2-yl)amino)isonicotinamide]	1.6 nM	3 nM	5600 nM
O=C(Nc1cnccc1OCC(F)F)c1ccnc(Nc2ccc(C(F)(F)F)cn2)c1 [Example 42, N-(4-(2,2-Difluoroethoxy)pyridin-3-yl)-2-((5-(trifluoromethyl)pyridin-2-yl)amino)isonicotinamide]	0.27 nM	0.49 nM	21 nM
O=C(Nc1cnccc1-c1ccccc1)c1ccnc(Nc2cc3ccccc3cn2)c1 [Example 115, 2-(Isoquinolin-3-ylamino)-N-(4-phenylpyridin-3-yl)isonicotinamide]	0.65 nM	0.97 nM	297 nM
O=C(Nc1cnccc1OCCN1CCOCC1)c1ccnc(Nc2ccc(C(F)(F)F)cn2)c1 [Example 47, N-(4-(2-Morpholinoethoxy)pyridin-3-yl)-2-((5-(trifluoromethyl)pyridin-2-yl)amino)isonicotinamide]	5.6 nM	18 nM	420 nM
O=C(Nc1cncc(-c2ccccc2Cl)c1)c1ccnc(Nc2cccc(C(F)(F)F)n2)c1 [Example 145, N-(5-(2-Chlorophenyl)pyridin-3-yl)-2-((6-(trifluoromethyl)pyridin-2-yl)amino)isonicotinamide]	4.4 nM	6.4 nM	730 nM
O=C(Nc1cncc(-n2ccc(C(F)(F)F)n2)c1)c1ccnc(Nc2ccc(C(F)(F)F)cn2)c1 [Example 120, N-(5-(3-(Trifluoromethyl)-1H-pyrazol-1-yl)pyridin-3-yl)-2-((5-(trifluoromethyl)pyridin-2-yl)amino)isonicotinamide]	14 nM	29 nM	1500 nM
O=C(Nc1cnc(F)cc1N1CCOCC1)c1ccnc(Nc2ccc(C(F)(F)F)cn2)c1 [Example 73, N-(6-Fluoro-4-morpholinopyridin-3-yl)-2-((5-(trifluoromethyl)pyridin-2-yl)amino)isonicotinamide]	0.6 nM	1 nM	43 nM
O=C(Nc1cnccc1OCCN1CCCC1)c1ccnc(Nc2ccc(C(F)(F)F)cn2)c1 [Example 46, N-(4-(2-(Pyrrolidin-1-yl)ethoxy)pyridin-3-yl)-2-((5-(trifluoromethyl)pyridin-2-yl)amino)isonicotinamide]	75 nM	150 nM	4300 nM
O=C(Nc1cnccc1-c1ccccc1)c1ccnc(Nc2cccc(C(F)(F)F)n2)c1 [Example 2, N-(4-Phenylpyridin-3-yl)-2-((6-(trifluoromethyl)pyridin-2-yl)amino)isonicotinamide]	7.3 nM	6.8 nM	574 nM
N#Cc1cccc(Nc2cc(C(=O)Nc3cncc(-c4cccc(F)c4C#N)c3)ccn2)n1 [Example 166, N-(5-(2-Cyano-3-fluorophenyl)pyridin-3-yl)-2-((6-cyanopyridin-2-yl)amino)isonicotinamide]	0.28 nM	0.91 nM	390 nM
CC(=O)c1ccncc1NC(=O)c1ccnc(Nc2ccc(C(F)(F)F)cn2)c1 [Example 37, N-(4-Acetylpyridin-3-yl)-2-((5-(trifluoromethyl)pyridin-2-yl)amino)isonicotinamide]	1.5 nM	3.3 nM	130 nM
CC(C)C(O)(c1cc(Cl)ncc1NC(=O)c1ccnc(Nc2ccc(C(F)(F)F)cn2)c1)C1CC1 (stereo not drawn) [Example 102, N-(6-Chloro-4-(1-cyclopropyl-1-hydroxy-2-methylpropyl)pyridin-3-yl)-2-((5-(trifluoromethyl)pyridin-2-yl)amino)isonicotinamide]	30 nM	43 nM	1200 nM
